In ChEMBL document CHEMBL4418262, “Heterocyclic compounds for the inhibition of pask” (2016):

Molecular target: PAS domain-containing serine/threonine-protein kinase (Homo sapiens, UniProt Q96RG2)
Test: Inhibition of GST-tagged human recombinant PASK expressed in Baculovirus based system using Ulight-peptide substrate incubated for 2 hrs by TR-FRET assay

Sequence of PAS domain-containing serine/threonine-protein kinase (Q96RG2 whole entry, the tested form may be a part): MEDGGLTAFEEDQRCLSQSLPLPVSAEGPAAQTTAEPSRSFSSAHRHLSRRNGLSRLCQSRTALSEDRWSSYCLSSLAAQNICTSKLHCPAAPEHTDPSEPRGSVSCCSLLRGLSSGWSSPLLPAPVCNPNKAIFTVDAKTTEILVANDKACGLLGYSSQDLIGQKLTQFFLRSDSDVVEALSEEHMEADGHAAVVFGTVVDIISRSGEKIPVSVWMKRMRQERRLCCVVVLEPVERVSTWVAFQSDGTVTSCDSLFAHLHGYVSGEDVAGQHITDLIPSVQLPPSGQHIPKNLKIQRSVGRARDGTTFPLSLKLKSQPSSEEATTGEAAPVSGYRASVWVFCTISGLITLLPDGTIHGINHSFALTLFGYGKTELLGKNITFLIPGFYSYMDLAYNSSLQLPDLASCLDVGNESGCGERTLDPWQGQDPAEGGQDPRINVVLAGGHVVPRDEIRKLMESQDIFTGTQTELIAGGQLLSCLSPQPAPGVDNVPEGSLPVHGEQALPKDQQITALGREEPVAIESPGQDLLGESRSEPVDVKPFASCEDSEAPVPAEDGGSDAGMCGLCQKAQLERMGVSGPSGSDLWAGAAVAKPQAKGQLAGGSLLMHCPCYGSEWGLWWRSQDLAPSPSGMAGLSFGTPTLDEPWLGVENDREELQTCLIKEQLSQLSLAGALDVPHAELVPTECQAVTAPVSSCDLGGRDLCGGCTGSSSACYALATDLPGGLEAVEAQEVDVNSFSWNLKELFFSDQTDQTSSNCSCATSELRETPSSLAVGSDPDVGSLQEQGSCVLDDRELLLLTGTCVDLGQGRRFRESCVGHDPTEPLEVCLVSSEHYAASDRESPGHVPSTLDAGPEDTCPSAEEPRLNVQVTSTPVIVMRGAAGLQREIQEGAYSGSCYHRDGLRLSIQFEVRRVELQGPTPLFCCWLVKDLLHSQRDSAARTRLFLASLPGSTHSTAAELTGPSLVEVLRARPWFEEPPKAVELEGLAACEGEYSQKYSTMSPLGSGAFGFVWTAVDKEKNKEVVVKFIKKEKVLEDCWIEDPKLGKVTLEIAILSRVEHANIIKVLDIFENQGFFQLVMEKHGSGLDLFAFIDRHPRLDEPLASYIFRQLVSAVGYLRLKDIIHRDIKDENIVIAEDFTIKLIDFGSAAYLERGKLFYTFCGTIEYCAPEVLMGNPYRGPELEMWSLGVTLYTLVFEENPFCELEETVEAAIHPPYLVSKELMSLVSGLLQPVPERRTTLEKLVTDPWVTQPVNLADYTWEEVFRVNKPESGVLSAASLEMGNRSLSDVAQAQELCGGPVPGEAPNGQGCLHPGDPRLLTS

SMILES | IC50
CN(c1nc2cc(C(=O)O)ccc2nc1-c1ccc(F)cc1)C1CCC(O)CC1 (centres undefined) | ≤ 10 µM
C[C@H]1CCCN1c1nc2cc(C(=O)O)ccc2nc1-c1coc2ccc(C(F)(F)F)cc12 | ≤ 10 µM
CC(C)N(C)c1nc2cc(C(=O)O)ccc2nc1-c1coc2ccc(C(F)(F)F)cc12 | ≤ 10 µM
C[C@H]1CCCCN1c1nc2cc(C(=O)O)ccc2nc1-c1cc2cc(F)ccc2o1 | ≤ 10 µM
